Experimental data published in the supplement of paper PMC10307832.

Key:
Assay in all cases: relative viability (nuclei count vs DMSO), 5 days (fraction); higher = more cells survive
CX-5461 + Lapatinib = compound: Cc1cnc(CNC(=O)c2c(=O)c3ccc(N4CCCN(C)CC4)nc3n3c2sc2ccccc23)cn1 [CX-5461] + CS(=O)(=O)CCNCc1ccc(-c2ccc3ncnc(Nc4ccc(OCc5cccc(F)c5)c(Cl)c4)c3c2)o1 [Lapatinib] (partner 2 µM)
Outline: (§1)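 Dosing by pin tool came one day after lung cancer cell lines were seeded in 1536-well plates, using either one drug or a fixed anchor-drug dose plus five library-drug doses (not always all listed) in √10 steps. After 5 days, nuclei were counted on 4× images. Relative viability is treated-well nuclei count divided by vehicle-well nuclei count, and values are medians of duplicate plates.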

IMD-0354 + Tozasertib = compound: O=C(Nc1cc(C(F)(F)F)cc(C(F)(F)F)c1)c1cc(Cl)ccc1O [IMD-0354] + Cc1cc(Nc2cc(N3CCN(C)CC3)nc(Sc3ccc(NC(=O)C4CC4)cc3)n2)n[nH]1 [Tozasertib] (partner 0.1 µM)
Outline: as §1

IMD-0354 + Alpelisib = compound: O=C(Nc1cc(C(F)(F)F)cc(C(F)(F)F)c1)c1cc(Cl)ccc1O [IMD-0354] + Cc1nc(NC(=O)N2CCC[C@H]2C(N)=O)sc1-c1ccnc(C(C)(C)C(F)(F)F)c1 [Alpelisib] (partner 2 µM)
Outline: as §1

IMD-0354 + Olaparib = compound: O=C(Nc1cc(C(F)(F)F)cc(C(F)(F)F)c1)c1cc(Cl)ccc1O [IMD-0354] + O=C(c1cc(Cc2n[nH]c(=O)c3ccccc23)ccc1F)N1CCN(C(=O)C2CC2)CC1 [Olaparib] (partner 8 µM)
Outline: as §1

| Cell Line | relative viability (CX-5461 + Lapatinib; first compound 0.01 µM) | relative viability (CX-5461 + Lapatinib; first compound 0.03162 µM) | relative viability (CX-5461 + Lapatinib; first compound 0.1 µM) | relative viability (CX-5461 + Lapatinib; first compound 0.3162 µM) | relative viability (CX-5461 + Lapatinib; first compound 1 µM) | relative viability (IMD-0354 + Tozasertib; first compound 0.04 µM) | relative viability (IMD-0354 + Tozasertib; first compound 0.1265 µM) | relative viability (IMD-0354 + Tozasertib; first compound 0.4 µM) | relative viability (IMD-0354 + Tozasertib; first compound 1.265 µM) | relative viability (IMD-0354 + Tozasertib; first compound 4 µM) | relative viability (IMD-0354 + Alpelisib; first compound 0.04 µM) | relative viability (IMD-0354 + Alpelisib; first compound 0.1265 µM) | relative viability (IMD-0354 + Alpelisib; first compound 0.4 µM) | relative viability (IMD-0354 + Alpelisib; first compound 1.265 µM) | relative viability (IMD-0354 + Alpelisib; first compound 4 µM) | relative viability (IMD-0354 + Olaparib; first compound 0.04 µM) | relative viability (IMD-0354 + Olaparib; first compound 0.1265 µM) | relative viability (IMD-0354 + Olaparib; first compound 0.4 µM) | relative viability (IMD-0354 + Olaparib; first compound 1.265 µM) | relative viability (IMD-0354 + Olaparib; first compound 4 µM) |
| --- | --- | --- | --- | --- | --- | --- | --- | --- | --- | --- | --- | --- | --- | --- | --- | --- | --- | --- | --- | --- |
| HARA | 0.904 | 0.921 | 0.84 | 0.861 | 0.348 | 0.102 | 0.132 | 0.105 | 0.0599 | 0.0875 | 0.942 | 0.724 | 0.503 | 0.141 | 0.169 | 0.455 | 0.697 | 0.935 | 0.167 | 0.311 |
| HCC-15 | 0.886 | 0.914 | 0.869 | 0.264 | 0.605 | 0.331 | 0.379 | 0.31 | 0.17 | 0.098 | 0.861 | 0.853 | 0.466 | 0.272 | 0.0938 | 0.576 | 0.69 | 0.474 | 0.317 | 0.157 |
| HCC-44 | 0.972 | 1.01 | 0.994 | 1.01 | 0.69 | 0.955 | 0.899 | 0.706 | 0.351 | 0.17 | 0.857 | 0.728 | 0.379 | 0.185 | 0.134 | 0.994 | 1.04 | 0.571 | 0.789 | 0.296 |
| HCC-78 | 1 | 0.916 | 0.734 | 0.244 | 0.565 | 0.467 | 0.598 | 0.3 | 0.368 | 0.231 | 0.366 | 0.345 | 0.121 | 0.231 | 0.192 | 0.814 | 0.744 | 0.649 | 1.04 | 0.291 |
| HCC-366 | 1.14 | 1 | 0.812 | 0.04 | 0.0982 | 0.122 | 0.0913 | 0.168 | 0.0335 | 0.031 | 0.509 | 0.727 | 0.148 | 0.373 | 0.0309 | 0.363 | 0.371 | 0.231 | 0.053 | 0.0706 |
| IA-LM | 0.692 | 0.748 | 0.715 | 0.669 | 0.475 | – | – | – | – | – | 0.806 | 0.617 | 0.634 | 0.106 | 0.178 | 0.829 | 0.729 | 0.521 | 0.161 | 0.133 |
| LCLC-103H | – | – | – | – | – | 0.597 | 0.509 | 0.425 | 0.449 | 0.222 | 0.952 | 0.998 | 0.839 | 0.815 | 0.397 | 0.79 | 0.739 | 0.566 | 0.45 | 0.379 |
| NCI-H441 | – | – | – | – | – | 0.79 | 0.667 | 0.397 | 0.295 | 0.24 | – | 0.78 | 0.398 | 0.285 | 0.217 | 0.537 | 0.541 | 0.604 | 0.186 | 0.194 |
| NCI-H522 | – | – | – | – | – | 0.58 | 0.513 | 0.5 | 0.576 | 0.404 | – | – | – | – | – | 0.517 | 0.716 | 0.625 | 0.46 | 0.333 |
| NCI-H1299 | 0.945 | 0.975 | 1 | 0.982 | 0.866 | – | – | – | – | – | 1.01 | 1.02 | 0.709 | 0.276 | 0.194 | 0.767 | 0.969 | 0.505 | 0.193 | 0.16 |
| NCI-H1563 | 0.889 | 0.852 | 0.661 | 0.683 | 0.477 | – | – | – | – | – | 0.875 | 0.889 | 0.886 | 0.726 | 0.399 | – | – | – | – | – |
| NCI-H1623 | – | – | – | – | – | 0.484 | 0.444 | 0.398 | 0.342 | 0.277 | – | – | – | – | – | – | – | – | – | – |
| NCI-H1648 | – | – | – | – | – | – | 0.454 | 0.498 | 0.424 | 0.269 | – | – | – | – | – | 0.528 | 0.484 | 0.565 | 0.677 | 0.225 |
| NCI-H1650 | 0.714 | 0.714 | – | 0.229 | 0.19 | 0.47 | 0.362 | 0.253 | 0.259 | 0.19 | – | – | – | – | – | 0.827 | 0.82 | 0.463 | 0.325 | 0.145 |
| NCI-H1703 | 1.2 | 1.45 | 1.1 | 1.14 | 0.502 | – | – | – | – | – | 0.312 | 0.269 | 0.282 | 0.179 | 0.121 | 0.405 | 0.468 | 0.358 | 0.108 | 0.0868 |
| NCI-H1792 | 0.919 | 1.08 | 0.923 | 0.85 | 0.788 | – | – | – | – | – | 0.822 | 0.506 | 0.874 | 0.677 | 0.336 | 0.393 | 0.389 | 0.236 | 0.21 | 0.172 |
| NCI-H2342 | – | – | – | – | – | 0.497 | 0.534 | 0.471 | 0.401 | 0.377 | – | – | – | – | – | 0.432 | 0.478 | 0.356 | 0.38 | 0.432 |
| SW 900 | – | – | – | – | – | 0.635 | 0.531 | 0.409 | 0.273 | 0.225 | – | – | – | – | – | 0.928 | 0.948 | 0.66 | 0.212 | 0.258 |
